The text below walks through data of patent publication US5169845A, “Piperazine derivatives” (John Wyeth & Brother Limited, priority 1990, dated 1992).

By IC50 is commonly meant the concentration that inhibits the measured activity by half. High values mean a need for much substance, low ones inhibition by little substance.

One test concerns the target T1, 5-HT1A receptor (Rattus norvegicus, UniProt P19327).
T1 construct: rat hippocampal membrane homogenate; from tissue; host or cells: rat hippocampal membrane homogenate
T1 sequence (P19327 1-422): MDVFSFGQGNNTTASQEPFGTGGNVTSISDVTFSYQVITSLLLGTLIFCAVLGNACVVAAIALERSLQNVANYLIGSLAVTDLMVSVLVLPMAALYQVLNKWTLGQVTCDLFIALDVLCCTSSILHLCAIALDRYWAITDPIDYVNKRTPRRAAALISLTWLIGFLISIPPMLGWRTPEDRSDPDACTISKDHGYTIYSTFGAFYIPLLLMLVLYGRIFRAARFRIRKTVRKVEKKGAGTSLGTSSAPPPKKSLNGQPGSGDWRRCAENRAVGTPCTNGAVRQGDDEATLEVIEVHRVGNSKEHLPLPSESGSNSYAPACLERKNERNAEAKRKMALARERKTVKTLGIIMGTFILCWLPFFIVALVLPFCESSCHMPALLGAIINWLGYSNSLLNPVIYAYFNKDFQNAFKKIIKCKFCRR
The test can be described thus: 5-HT1A receptor binding activity in rat hippocampal membrane homogenate. The protocol: The compounds of the invention were tested for 5-HT1A receptor binding activity in rat hippocampal membrane homogenate by the method of B S Alexander and M D Wood, J Pharm Pharmacol, 1988, 40, 888-891.

In another test the test system is α1. Description: affinity for the α1 site (procedure of A L Marrow et al). The test is classed as binding.

For `COc1ccccc1N1CCN(CCC(C(=O)N2CCCCCC2)c2cccs2)CC1` (stereo not shown) [Example 2, 2,3,4,5,6,7-Hexahydro-1-[2-(2-thiophenyl)-4-(1-(4-(2-methoxyphenyl)piperazinyl))]butyryl-1H-azepine], the values for the IC50 on 5-HT1A receptor and in the test with α1 were 0.0008 µM and 0.147 µM, respectively.
`COc1ccccc1N1CCN(CC(C(=O)NC(C)(C)C)c2ccccn2)CC1` (stereo not shown) [Example 1, N-tert-Butyl-3-[4-(2-methoxyphenyl)piperazin-1-yl]-2-(2-pyridyl)propanamide]: the IC50 was found to be 0.038 µM on 5-HT1A receptor and 2.9 µM with α1.
